US20240190831A1, “TRANSTHYRETIN STABILIZING COMPOUNDS” (Protego Biopharma, Inc., priority 2021, published 2024)
Counter-ions that a name gives are not always drawn.

assay: In vitro rat liver S9 stability assay (formation of tafamidis); assay type: in vitro ADME; conditions: rat liver S9, 1 μM test compound, 37° C.
Method: A stability assay in liver S9 (rat or human) was used to evaluate the ability of a compound provided herein to convert to an active TTR stabilizer. The test compound was added to liver S9 and incubated at 37° C. in a water bath at a concentration of 1 μM. At each time point (0, 5, 10, 20, 30 and 60 min), stop solution (tolbutamide plus labetalol) was added to precipitate protein and mixed thoroughly. After centrifugation, an aliquot of supernatant was analyzed by LC-MS/MS. The percentage of formation of active agent was calculated at each time point.

| Compound | Formation of tafamidis at 60 min |
| --- | --- |
| CN(C)[C@H]1CC[C@@H](OC(=O)c2ccc3nc(-c4cc(Cl)cc(Cl)c4)oc3c2)C1 (relative stereo) [Compound 46, Cis-3-(dimethylamino)cyclopentyl 2-(3,5-dichlorophenyl)benzo-[d]oxazole-6-carboxylate—HCl salt] | A (A is <25%) |
| CC(CO)NC(=O)c1ccc2nc(-c3cc(Cl)cc(Cl)c3)oc2c1 (centres unmarked) [Compound 10, 2-(3,5-dichlorophenyl)-N-(1-hydroxypropan-2-yl)benzo[d]oxazole-6-carboxamide] | A (A is <25%) |
| O=C(N[C@H]1C[C@@H](O)C1)c1ccc2nc(-c3cc(Cl)cc(Cl)c3)oc2c1 [Compound 27, 2-(3,5-dichlorophenyl)-N-((Cis)-3-hydroxycyclobutyl)benzo-[d]oxazole-6-carboxamide] | A (A is <25%) |
| CC1(C)CCC(OC(=O)c2ccc3nc(-c4cc(Cl)cc(Cl)c4)oc3c2)C1 (centres unmarked) [Compound 48, 3,3-dimethylcyclopentyl 2-(3,5-dichlorophenyl)benzo[d]oxazole-6-carboxylate] | B (B is ≥25 to <50%) |
| O=C(N[C@H]1CC[C@@H](O)CC1)c1ccc2nc(-c3cc(Cl)cc(Cl)c3)oc2c1 [Compound 96] | A (A is <25%) |
| O=C(OC1CCc2nc[nH]c2C1)c1ccc2nc(-c3cc(Cl)cc(Cl)c3)oc2c1 (centres unmarked) [Compound 60, 4,5,6,7-tetrahydro-1H-benzo[d]imidazol-6-yl 2-(3,5-dichlorophenyl) benzo[d]oxazole-6-carboxylate] | A (A is <25%) |
| O=C(NC1CCC1)c1ccc2nc(-c3cc(Cl)cc(Cl)c3)oc2c1 [Compound 18, N-cyclobutyl-2-(3,5-dichlorophenyl)benzo[d]oxazole-6-carboxamide] | A (A is <25%) |
| O=C(NC1CCCCC1(F)F)c1ccc2nc(-c3cc(Cl)cc(Cl)c3)oc2c1 (centres unmarked) [Compound 13, 2-(3,5-dichlorophenyl)-N-(2,2-difluorocyclohexyl)benzo[d]oxazole-6-carboxamide] | A (A is <25%) |
| O=C(OC1CC(=O)N2CCCCC12)c1ccc2nc(-c3cc(Cl)cc(Cl)c3)oc2c1 (centres unmarked) [Compound 65, 3-oxooctahydroindolizin-1-yl 2-(3,5-dichlorophenyl)benzo-[d]oxazole-6-carboxylate] | C (C is ≥50 to <75%) |
| O=C(N[C@@H]1CCC[C@H](O)C1)c1ccc2nc(-c3cc(Cl)cc(Cl)c3)oc2c1 [Compound 99] | A (A is <25%) |
| CC1(OC(=O)c2ccc3nc(-c4cc(Cl)cc(Cl)c4)oc3c2)CCN(CC(F)(F)F)C1 (centres unmarked) [Compound 119] | A (A is <25%) |
| O=C(c1ccc2nc(-c3cc(Cl)cc(Cl)c3)oc2c1)N1CCC(F)C1 (centres unmarked) [Compound 112] | A (A is <25%) |
| CC1(O)CCN(C(=O)c2ccc3nc(-c4cc(Cl)cc(Cl)c4)oc3c2)C1 (centres unmarked) [Compound 92] | A (A is <25%) |
| O=C(OC1CCN(c2ccncc2)C1)c1ccc2nc(-c3cc(Cl)cc(Cl)c3)oc2c1 (centres unmarked) [Compound 50, 1-(pyridin-4-yl)pyrrolidin-3-yl 2-(3,5-dichlorophenyl)benzo-[d]oxazole-6-carboxylate] | A (A is <25%) |
| NC(=O)c1ccc2nc(-c3cc(Cl)cc(Cl)c3)oc2c1 [Compound 4, 2-(3,5-dichlorophenyl)benzo[d]oxazole-6-carboxamide] | A (A is <25%) |
| O=C(N[C@@H]1CC[C@H](O)C1)c1ccc2nc(-c3cc(Cl)cc(Cl)c3)oc2c1 (relative stereo) [Compound 30, 2-(3,5-dichlorophenyl)-N-((cis)-3-hydroxycyclopentyl)benzo-[d]oxazole-6-carboxamide] | A (A is <25%) |
| CC(CCO)OC(=O)c1ccc2nc(-c3cc(Cl)cc(Cl)c3)oc2c1 (centres unmarked) [Compound 41, 4-hydroxybutan-2-yl 2-(3,5-dichlorophenyl) benzo [d] oxazole-6-carboxylate] | C (C is ≥50 to <75%) |
| O=C(c1ccc2nc(-c3cc(Cl)cc(Cl)c3)oc2c1)N1CC[C@@H](O)[C@@H](F)C1 [Compound 114] | A (A is <25%) |
| O=C(O[C@H]1CCCN2CCCC[C@@H]12)c1ccc2nc(-c3cc(Cl)cc(Cl)c3)oc2c1 (single isomer, unassigned) [Compound 72, Octahydro-1H-quinolizin-1-yl 2-(3,5-dichlorophenyl)benzo[d]oxazole-6-carboxylate] | A (A is <25%) |

| Compound | Formation of tafamidis at 60 min |
| --- | --- |
| O=C(c1ccc2nc(-c3cc(Cl)cc(Cl)c3)oc2c1)N1CCC2(CC(O)C2)C1 (centres unmarked) [Compound 105] | A (A is <25%) |
| O=C(c1ccc2nc(-c3cc(Cl)cc(Cl)c3)oc2c1)N1CCOCC1 [Compound 81] | A (A is <25%) |
| O=C(O[C@H]1CCN2CCC[C@H]12)c1ccc2nc(-c3cc(Cl)cc(Cl)c3)oc2c1 (relative stereo) [Compound 58, (cis)-hexahydro-1H-pyrrolizin-1-yl 2-(3,5-dichlorophenyl)benzo[d]oxazole-6-carboxylate] | A (A is <25%) |
| O=C(c1ccc2nc(-c3cc(Cl)cc(Cl)c3)oc2c1)N1C[C@@H]2[C@H](O)[C@@H]2C1 [Compound 108] | A (A is <25%) |
| O=C(O[C@H]1CCCN2CCCC[C@H]12)c1ccc2nc(-c3cc(Cl)cc(Cl)c3)oc2c1 (single isomer, unassigned) [Compound 71, Octahydro-1H-quinolizin-1-yl 2-(3,5-dichlorophenyl)benzo[d]oxazole-6-carboxylate] | B (B is ≥25 to <50%) |
| O=C(OC1CCN(c2ncccn2)C1)c1ccc2nc(-c3cc(Cl)cc(Cl)c3)oc2c1 (centres unmarked) [Compound 51, 1-(pyrimidin-2-yl)pyrrolidin-3-yl 2-(3,5-dichlorophenyl)benzo-[d]oxazole-6-carboxylate] | B (B is ≥25 to <50%) |
| O=C(NC1CCOC1)c1ccc2nc(-c3cc(Cl)cc(Cl)c3)oc2c1 (centres unmarked) [Compound 17, 2-(3,5-dichlorophenyl)-N-(tetrahydrofuran-3-yl)benzo[d]oxazole-6-carboxamide] | A (A is <25%) |
| O=C(OCCCO)c1ccc2nc(-c3cc(Cl)cc(Cl)c3)oc2c1 [Compound 40, 3-hydroxypropyl 2-(3,5-dichlorophenyl)benzo[d]oxazole-6-carboxylate] | B (B is ≥25 to <50%) |
| O=C(NC1CC1)c1ccc2nc(-c3cc(Cl)cc(Cl)c3)oc2c1 [Compound 20, N-cyclopropyl-2-(3,5-dichlorophenyl)benzo[d]oxazole-6-carboxamide] | A (A is <25%) |
| O=C(N[C@@H]1CCCC[C@@H]1O)c1ccc2nc(-c3cc(Cl)cc(Cl)c3)oc2c1 (relative stereo) [Compound 32, 2-(3,5-dichlorophenyl)-N-((cis)-2-hydroxycyclohexyl)benzo-[d]oxazole-6-carboxamide] | A (A is <25%) |
| O=C(NC1CCC(F)(F)CC1)c1ccc2nc(-c3cc(Cl)cc(Cl)c3)oc2c1 [Compound 15, 2-(3,5-dichlorophenyl)-N-(4,4-difluorocyclohexyl)benzo[d]oxazole-6-carboxamide] | A (A is <25%) |
| O=C(c1ccc2nc(-c3cc(Cl)cc(Cl)c3)oc2c1)N1CCC(O)CC1 [Compound 82] | A (A is <25%) |
| CC(C)(N1CCC(OC(=O)c2ccc3nc(-c4cc(Cl)cc(Cl)c4)oc3c2)C1)C(F)(F)F (centres unmarked) [Compound 57, 1-(1,1,1-trifluoro-2-methylpropan-2-yl)pyrrolidin-3-yl 2-(3,5-dichlorophenyl)benzo[d]oxazole-6-carboxylate] | A (A is <25%) |
| O=C(N[C@@H]1CCC[C@H]1O)c1ccc2nc(-c3cc(Cl)cc(Cl)c3)oc2c1 (relative stereo) [Compound 29, 2-(3,5-dichlorophenyl)-N-((trans)-2-hydroxycyclopentyl)benzo-[d]oxazole-6-carboxamide] | A (A is <25%) |
| O=C(N[C@@H]1CCCC[C@H]1O)c1ccc2nc(-c3cc(Cl)cc(Cl)c3)oc2c1 (relative stereo) [Compound 33, 2-(3,5-dichlorophenyl)-N-((trans)-2-hydroxycyclohexyl)benzo-[d]oxazole-6-carboxamide] | A (A is <25%) |
| O=C(N[C@@H]1CC[C@@H](O)C1)c1ccc2nc(-c3cc(Cl)cc(Cl)c3)oc2c1 (relative stereo) [Compound 31, 2-(3,5-dichlorophenyl)-N-((trans)-3-hydroxycyclopentyl)benzo-[d]oxazole-6-carboxamide] | A (A is <25%) |
| O=C(c1ccc2nc(-c3cc(Cl)cc(Cl)c3)oc2c1)N1CC(F)(F)C[C@H]1CO [Compound 113] | A (A is <25%) |
| O=C(O[C@H]1CCN2CCC[C@@H]12)c1ccc2nc(-c3cc(Cl)cc(Cl)c3)oc2c1 (relative stereo) [Compound 59, (trans)-hexahydro-1H-pyrrolizin-1-yl 2-(3,5-dichlorophenyl)benzo[d]oxazole-6-carboxylate] | A (A is <25%) |
| O=C(N[C@@H]1CCC[C@@H](O)C1)c1ccc2nc(-c3cc(Cl)cc(Cl)c3)oc2c1 [Compound 100] | A (A is <25%) |
